Experiments:
control littermates (CL) [1] = assay: REMS activity by EEG/EMG sleep recording in control littermates (CL) of Cor26 CRH mice; type: in vivo; settings: CL animals of Cor26 CRH line; 50 mg/kg/d via drinking water
Procedure: (§1) Experiments were conducted with two different mouse lines of excessive central CRH secretion and their respective control littermates (CL). Mice of the CRH-COE^CNS line are characterised by CRH-overexpression within the whole CNS, whereas mice of the Cor26 CRH line display a CRH-overexpression specific to CRH-ergic neurons of the CNS. Three different CRHR1 antagonists were tested. […] In all cases, animals were left to recover from EEG/EMG-electrode implantation for two weeks, after which two days of baseline recording were initiated. Treatment with CRH-R1 antagonist or respective vehicle control commenced thereafter for five consecutive days. Antagonists were applied through the drinking water at a daily dose of 50 mg/kg body weight. EEG and EMG recordings were manually scored as wake, non-REMS (NREMS), and REMS in four second epochs by an experienced evaluator.

Cor26 CRH mice = assay: REMS activity by EEG/EMG sleep recording in Cor26 CRH mice; settings: for REMS levels / REMS activity: CRH-overexpressing Cor26 CRH mice, 50 mg/kg/d via drinking water
control littermates (CL) [2] = assay: REMS activity by EEG/EMG sleep recording in control littermates (CL) of CRH-COE^CNS mice; type: in vivo; settings: CL mice of CRH-COE^CNS line; 50 mg/kg/d via drinking water
Procedure: as §1

CRH-COE^CNS mice = assay: REMS activity by EEG/EMG sleep recording in CRH-COE^CNS mice; settings: for REMS activity: 50 mg/kg/d via drinking water, treatment days vs baseline, significant from treatment day two (DMP-696 P<0.05; SSR125543 P≤0.035)

For `CCC(CC)Oc1cc(C)nc(Oc2c(C)cc(C)cc2C)c1C` [CP-316,311], the “REMS levels in control littermates” value (control littermates (CL) [1]) was “no significant effect”, the “REMS levels / REMS activity” value (Cor26 CRH mice; 50 mg/kg/day) was “weak” and the “REMS levels / REMS activity” value (Cor26 CRH mice; listed as CP-316311, 50 mg/kg/day) was “suppressed”. The “REMS levels, area under the curve (AUC) within the light period” value (Cor26 CRH mice; Cor26 CRH mice, baseline vs treatment day three, P=0.006) was “significant decrease”.
With `COCC(COC)Nc1nc(C)nc2c(-c3ccc(Cl)cc3Cl)c(C)nn12` [DMP-696] the “REMS activity in control littermates” value (control littermates (CL) [2]) was “only a mild suppression”, the “treatment day of strongest suppression of REMS activity” value (CRH-COE^CNS mice; CRH-COE^CNS animals, 50 mg/kg/d) was “treatment day three” and the “REMS suppression relative to baseline REMS-levels of CL” value (CRH-COE^CNS mice; CRH-COE^CNS mice, 50 mg/kg/d) was “never exceeded baseline REMS-levels of CL”. The REMS activity (CRH-COE^CNS mice; CRH-COE^CNS mice, 50 mg/kg/day) was “significant decrease” and the REMS activity (CRH-COE^CNS mice; CRH-COE^CNS mice, listed as DMP696, 50 mg/kg/day) was “suppressed”.

Reference: patent US10837062B2, “Method for predicting a treatment response to a CRHR1 antagonist and/or a V1B antagonist in a patient with depressive and/or anxiety symptoms” (Max-Planck-Gesellschaft zur Förderung der Wissenschaften …, priority 2013, dated 2020)
